Experimental findings from PubChem BioAssay AID588615 (The Scripps Research Institute Molecular Screening Center, 2011) are described below.

Assay [1] concerns DLD-1 cells, p38 western blot, 24 h. The assay can be described thus: total p38 protein level change, either direction, late-stage follow-up, counter-screen for KLF5 inhibitor project, DLD1 cells, chemiluminescent western blot, powder samples (AID 588615). The note with it: measured here: p38 band fold change vs DMSO; at 10 µM.
Assay [2] has as its target Mitogen-activated protein kinase 14 (Homo sapiens) (UniProt Q16539). The assay is described as above. The note with it: DLD-1 cells, p38 western blot, 24 h; at 10 µM; stronger effect = higher value.

Usually inhibition stands for the relative decrease from the control value, in per cent.

SMILES strings stand for the structures. Calls of active or inactive are those of the source.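 Rule for the calls: active = p38 protein level shifted by 30% or more versus DMSO-treated cells, either down or up; inactive = shift in p38 protein level below 30%.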

Sequence of Mitogen-activated protein kinase 14 (Homo sapiens) (Q16539 whole entry, looked up): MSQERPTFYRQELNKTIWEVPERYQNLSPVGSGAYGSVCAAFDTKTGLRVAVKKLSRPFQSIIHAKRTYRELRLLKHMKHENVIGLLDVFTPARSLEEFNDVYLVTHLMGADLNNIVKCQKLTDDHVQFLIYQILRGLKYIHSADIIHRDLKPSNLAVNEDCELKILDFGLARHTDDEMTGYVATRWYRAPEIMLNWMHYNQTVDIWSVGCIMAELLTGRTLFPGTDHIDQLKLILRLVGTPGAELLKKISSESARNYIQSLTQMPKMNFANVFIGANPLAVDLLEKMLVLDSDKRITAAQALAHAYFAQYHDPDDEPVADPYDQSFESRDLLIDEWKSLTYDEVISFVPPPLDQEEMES

`CN(C(=O)CNC(=O)/C=C/c1cccc(Cl)c1)C1CCS(=O)(=O)C1` (centres undefined): the fold change in assay [1] came to 1.05. In assay [2], the inhibition is -5.46% (inactive).

With `CN(C(=O)CNC(=O)/C=C/c1cccc(Cl)c1)C1CCS(=O)(=O)CC1`, the inhibition in assay [2] is 12.3% (inactive). The same measure, in the same setting: with `CN(C(=O)COC(=O)/C=C/c1cccc([N+](=O)[O-])c1)C1CCS(=O)(=O)C1` (centres undefined) the figure was 19.9% (inactive).
